Data set [1] relates to ischemia-induced loss of hippocampal pyramidal cells and acetylcholine. As to conditions: pretreatment; cited from earlier work.
In a further data set the target is T1, brain AChE (Rattus norvegicus, UniProt P37136).
T1 sequence (P37136 32-614): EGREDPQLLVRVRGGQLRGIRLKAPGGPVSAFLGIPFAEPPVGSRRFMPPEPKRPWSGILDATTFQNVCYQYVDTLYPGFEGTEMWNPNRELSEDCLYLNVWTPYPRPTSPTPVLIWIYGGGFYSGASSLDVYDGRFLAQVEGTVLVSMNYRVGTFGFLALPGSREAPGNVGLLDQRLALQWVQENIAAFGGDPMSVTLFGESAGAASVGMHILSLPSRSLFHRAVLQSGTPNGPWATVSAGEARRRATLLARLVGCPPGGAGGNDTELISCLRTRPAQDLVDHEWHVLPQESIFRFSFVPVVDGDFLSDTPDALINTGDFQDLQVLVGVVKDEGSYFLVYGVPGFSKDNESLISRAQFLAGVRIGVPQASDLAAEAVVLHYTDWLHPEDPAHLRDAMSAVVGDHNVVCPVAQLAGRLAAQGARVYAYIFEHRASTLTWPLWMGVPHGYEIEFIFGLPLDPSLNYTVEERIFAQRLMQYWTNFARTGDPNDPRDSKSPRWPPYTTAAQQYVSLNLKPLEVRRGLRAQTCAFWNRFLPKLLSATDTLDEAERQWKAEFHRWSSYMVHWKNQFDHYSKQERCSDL
As to conditions: cited from earlier work.

The subject of data set [2] is ischemic (MCAo) Sprague-Dawley rats. As to conditions: rat, in vivo.
Data set [3] has as its system brain acetylcholinesterase. As to conditions: cited from earlier work.
Data set [4] has as its system ischemic (MCAo) Sprague-Dawley rats. Description: Step-down passive avoidance test after MCAo. It is filed as in vivo, rat. The text has this: Experimental Protocol. A total of 48 eight-week-old, male, Sprague-Dawley rats weighing about 250 g served as subjects in the present study. All animals were free of virus antibody. A 3-day acclimation period was allowed prior to using the animals. Animals were kept under a 12-12 hr light/dark cycle and allowed free access to food and water before and after surgical procedures. All experimental procedures followed UTEP IACUC guidelines for use of animals in research to minimize discomfort in the animals during surgery and in the recovery period. […] In study one (n=24), the 0.3 mg/kg dose of MSF, which was previously reported as efficacious in ameliorating cognitive deficits in animals, was used to initially provide the putative drug's effects on ischemic animals. Studies two (dose response effects of MSF; n=16) and three (withdrawal of MSF; n=8) were conducted to further characterize the direct neurobehavioral effects of MSF. […]
The passive avoidance test followed the procedures described in detail elsewhere (Borlongan et al., 1998a; 1998b). […] Acquisition of the task was measured in terms of the amount of time it took the rat to remain on the platform continuously for 3 min. Twenty four hrs later, a retention test was conducted by placing the rat on the platform exactly as before and recording the latency to step-down measured to a maximum of 3 min. […]

The test system is the same in data set [5]. Description: Elevated body swing test (EBST), motor asymmetry after MCAo. Type of data set: in vivo, rat. As to conditions: 4 wks after MCAo, MSF 1 mg/kg at 24 and 48 hrs then 0.3 mg/kg every other day i.p., mean±S.E.M., vehicle 84.8±10, p>0.05.
Data set [6] has as its target acetylcholinesterase in comparison to butyrylcholinesterase (Homo sapiens, UniProt P22303). As to conditions: cited from earlier work.
In another data set the test system is SDAT patients. As to conditions: cited from earlier work.
The subject of data set [7] is middle-aged and older rats. As to conditions: chronic MSF treatment; cited from earlier work.
The next data set concerns the target T2, acetylcholinesterase (Rattus norvegicus, UniProt P37136).
T2 construct: from tissue; host or cells: rat brain (whole brain, hippocampus, cortex, striatum/nucleus accumbens)
T2 sequence (P37136 32-614): T1 sequence (P37136 32-614)
Nature of the data set: Control acetylcholinesterase assays of brain after MSF treatment (Ellman spectrophotometric method). It is filed as in vivo. As to conditions: same regimen; dissected brain part. Here is the method:
Control Acetylcholinesterase Assays. Two additional groups of normal control (non-ischemic) rats were treated with MSF (N=4) or peanut oil vehicle (N=4) in accordance with the exact procedures used with the other groups in order to estimate the level of acetylcholinesterase inhibition produced. At the end of the study, the rats were sacrificed and acetylcholinesterase assays were conducted at 25° C. according to the spectrophotometric method (Ellman et al., 1961) with minor modifications (pH set at 7.4 and using 1 mM acetyl-β-methyl-thiocholine iodide as substrate).
Drugs. For study 1, animals received ip injections of either MSF (1 mg/kg at 24 and 48 hrs post-MCAo and 0.3 mg/kg thereafter every other day) or the vehicle, peanut oil, for four weeks. Each animal received 0.5 ml of the solution. For study 2, animals received 1 mg/kg at 24 and 48 hrs post-MCAo and 0, 0.15, 0.30 or 0.6 mg/kg of MSF in peanut oil using the same regimen mentioned above. For study 3, animals were introduced to the same regimen as in study 1, but thereafter received peanut oil every other day from four weeks up to eight weeks post-MCAo.
A general note: Ellman's reagent forms a yellow product with free thiols.

Data set [8] deals with septal ChAT immunoreactivity. Nature of the data set: Choline acetyltransferase (ChAT) immunohistochemistry of the septum. It is filed as in vivo, rat. Here is the method: Choline Acetyltransferase (ChAT) Immunohistochemistry. Following the behavioral test at 4 wks post-ischemia, randomly selected animals (n=4 per group) were deeply anesthetized and perfused intracardially with 150 ml saline followed by 150 ml of 4% paraformaldehyde. The brains were post-fixed overnight in 4% paraformaldehyde and subsequently immersed in 20% sucrose in 4% paraformaldehyde and stored at 8° C. until sectioning. A vibratome (Vibroslice, Fla.) was used to cut the brain (40 μm sections). Ten serial brain sections that included the septal region (+1.4 to +0.2 mm from the bregma) were processed for ChAT immunohistochemistry. Sections were pre-incubated in 5% blocking serum (normal goat, Jackson ImmunoResearch Laboratories, PA) in 0.1% Triton-X in 0.1 M NaPBS for 60 min, followed by incubation in the primary ChAT antibody (Boehringer Mannheim Biochemical, IN; 1:10 dilution in 0.1 M phosphate-buffered saline, NaPBS) at room temperature overnight. The sections were reacted with the appropriate biotinylated secondary antibody (1:2000) for 45 min, followed by an avidin-biotin-peroxidase complex system (ABC Elite Vectastain Kit, Vector, Burlingame, Calif.) for 45 min. Finally, the Vector VIP Kit (Vector, Burlingame, Calif.) was used to visualize the reaction product. The sections were mounted on gelatin-coated glass slides, dried overnight, dehydrated in increasing alcohol concentrations, and cover-slipped using Permount (Fisher Scientific, Pittsburgh, Pa.) mounting solution. Serial sections were digitized using a PC-based Image Tools computer program. To determine the ChAT alterations in the septum, comparisons of mean total number (average counts from ten brain sections per animal) of septal ChAT-immunoreactive (ir) neurons from MSF- and vehicle-treated ischemic animals were conducted. Individual counts of ChAT-ir neurons were made using the following criteria: heavily stained nuclei (HN), pale stained nuclei (PN) and presence of elaborate processes (P). […] In addition, a 5-point semi-quantitative scale was used to assess the intensity of ChAT immunoreactivity. […]

Setting [9] is: chronic MSF 0.22 mg/kg three times per week.
The mark [10] stands for this setting: single systemic injection of 1.5 mg/kg MSF.

acetylcholinesterase in comparison to butyrylcholinesterase, sequence (P22303 32-614): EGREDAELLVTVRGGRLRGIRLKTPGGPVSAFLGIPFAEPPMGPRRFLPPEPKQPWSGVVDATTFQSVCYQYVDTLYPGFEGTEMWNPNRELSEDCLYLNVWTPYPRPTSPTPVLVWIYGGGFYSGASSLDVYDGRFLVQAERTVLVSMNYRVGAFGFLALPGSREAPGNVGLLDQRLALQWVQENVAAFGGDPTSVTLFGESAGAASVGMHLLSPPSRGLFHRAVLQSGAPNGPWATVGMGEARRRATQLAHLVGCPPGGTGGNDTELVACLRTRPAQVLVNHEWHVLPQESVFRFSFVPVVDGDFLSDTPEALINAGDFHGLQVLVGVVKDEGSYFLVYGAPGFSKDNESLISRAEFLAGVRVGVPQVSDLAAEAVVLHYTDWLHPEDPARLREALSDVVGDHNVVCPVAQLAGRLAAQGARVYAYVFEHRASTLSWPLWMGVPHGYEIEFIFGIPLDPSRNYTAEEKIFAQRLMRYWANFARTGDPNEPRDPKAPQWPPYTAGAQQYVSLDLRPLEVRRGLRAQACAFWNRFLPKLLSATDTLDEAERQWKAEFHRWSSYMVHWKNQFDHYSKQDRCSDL

`CCN(C)C(=O)Oc1cccc([C@H](C)N(C)C)c1` [ENA-173]: the “levels of hippocampal acetylcholine and ischemia-induced loss of hippocampal pyramidal cells” value in [1] is “preserve the levels of hippocampal acetylcholine and to protect against ischemia-induced loss of pyramidal cells”.
For `CS(=O)(=O)F` [MSF, Methanesulfonyl fluoride], on brain AChE (setting [9]), the “decrement in brain AChE activity” value is recorded as “about 50%”, the liver damage result is “no liver damage” and the locomotor side effects result is reported as “without discernable locomotor side effects”. Moreover, on brain AChE (setting [10]), the behavioral alterations result is listed as “no observable behavioral alterations” and the “reduction of brain AChE activity” value is 70%. In data set [2], the “ischemia-induced apoptotic cell death” value is recorded as “did not block ischemia-induced apoptotic cell death” and the “mean volume of infarcted tissue” value is listed as 78.1±14.2 mm^3. Besides, in data set [3] (at up to 80-90% brain inhibition), the “toxicity at accumulated brain acetylcholinesterase inhibition” value was “without toxicity”. Further, in [3] (relatively small doses over a long period of time, minimum inhibition of peripheral enzyme), the “inhibition of brain acetylcholinesterase that can be accumulated” value is 80-90%. Further, the “passive avoidance: time to acquire the task” value in data set [4] (4 wks after MCAo, same regimen, mean±S.E.M., vehicle 398±62, p<0.05) stood at 255 ± 36 s. For the same molecule, in data set [4] (retention test 24 hrs after acquisition, max 3 min, vehicle 79±26, p<0.05), the “passive avoidance: retention of the task (step down latency)” value amounted to 145 ± 18 s. Also, the “biased swing activity (EBST)” value in data set [5] is listed as 87.7±8%. Also, in data set [6], the “selectivity as inhibitor of acetylcholinesterase in comparison to butyrylcholinesterase” value was “high selectivity”. The “persistence of cognition-enhancing effects after withdrawal” value in the data set on SDAT patients (SDAT patients) is reported as “persisted up to eight weeks after withdrawal of the drug”. Besides, the “cognitive performance of SDAT patients” value in the data set with SDAT patients (double-blind, placebo-controlled study) is on record as “significant clinical improvements”. Further, in [7], the “acquisition of one-trial per day discriminative reward learning task” value is recorded as “enhance the acquisition”. For the same molecule, at acetylcholinesterase, the “acetylcholinesterase inhibition in cortex” value is listed as 85.9%, the “acetylcholinesterase inhibition in hippocampus” value was 88.5% and the “acetylcholinesterase inhibition in striatum/nucleus accumbens” value amounted to 95.0%. In [8] (compared to vehicle-treated ischemic animals), the “intensity of staining of ChAT-ir neurons in lateral and medial septum” value was “more intense staining of ChAT-ir neurons”. Moreover, the “increment in mean total number of HN+P ChAT-ir cells vs vehicle-treated ischemic animals” value in data set [8] (septum, 4 wks post-ischemia, heavily stained nuclei with processes, p<0.05) is reported as 10%-15%. In data set [8] (septum, 4 wks post-ischemia, heavily stained nuclei, p<0.05), the “increment in mean total number of HN ChAT-ir cells vs vehicle-treated ischemic animals” value is reported as 10%-15%.
In the case of `COP(=O)(OC)C(O)C(Cl)(Cl)Cl` (stereo not drawn) [metrifonate, reference compound], the “selectivity as inhibitor of acetylcholinesterase in comparison to butyrylcholinesterase” value in data set [6] is recorded as “do not show this high degree of selectivity”.

These data come from patent publication US8618167B2, “Methods of attenuating cognitive deficits with sulfonyl fluorides” (priority 2001, dated 2013).
